Experimental data published in the supplement of paper PMC10627819.

Columns and labels:
S. pneumoniae D39V [1] = assay: Bliss interaction score (quartile over a dose matrix) (fitness difference); higher = more antagonism (negative = synergy)
In short: (§1)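 Fitness was derived from optical density at entry into stationary phase, divided by the robust mean of the no-drug wells on the same plate. That reading was taken as OD595, and the ratio was capped at 1. Single-drug fitness was inferred from the combination data. The Bliss score, observed fitness minus the expected product of single-drug fitness, was summarised as quartiles over technical, biological and donor/recipient replicates.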

B. subtilis 168 [2] = assay: as above
In short: as §1

S. aureus DSM 20231 [3] = assay: as above
In short: as §1

S. aureus Newman [4] = assay: as above
In short: as §1

S. pneumoniae D39V [5] = assay: fitness (endpoint OD595 vs no drug) (fraction); higher = more growth
In short: (§2)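 Volumes were 30 µl per well, or 55 µl for S. pneumoniae, in 384-well plates inoculated at OD595 0.01. Media were TSB, LB Lennox or CY at 37 °C, and OD595 was read every 30 min for 14 h with first-reading background subtraction. Fitness is the ratio of optical density at stationary-phase entry to the robust mean of no-drug controls. That ratio is capped at 1.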

B. subtilis 168 [6] = assay: as above
In short: as §2

S. aureus DSM 20231 [7] = assay: as above
In short: as §2

S. aureus Newman [8] = assay: as above
In short: as §2
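For Bliss interaction score (quartile over a dose matrix) in this document: first quartile when negative (synergy) and third quartile when positive (antagonism).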

O=C(O[C@@H]1Cc2c(O)cc(O)cc2O[C@@H]1c1cc(O)c(O)c(O)c1)c1cc(O)c(O)c(O)c1 [EGCG] + C[n+]1ccc(-c2cc[n+](C)cc2)cc1 [Paraquat]
Details	Bliss interaction score
B. subtilis 168 [2]	0.0809
S. aureus DSM 20231 [3]	-0.0973
S. aureus Newman [4]	-0.052
S. pneumoniae D39V [1]	0.0566

fitness
Details	first compound 6.25 µg/mL	first compound 12.5 µg/mL	first compound 25 µg/mL	first compound 50 µg/mL
B. subtilis 168 [6], partner 1.25 µg/mL	0.912	–	–	–
B. subtilis 168 [6], partner 2.5 µg/mL	0.918	–	–	–
B. subtilis 168 [6], partner 5 µg/mL	0.836	0.691	–	–
S. aureus DSM 20231 [7], partner 1.25 µg/mL	–	0.792	0.774	–
S. aureus DSM 20231 [7], partner 2.5 µg/mL	–	0.767	0.827	0.609
S. aureus DSM 20231 [7], partner 5 µg/mL	–	0.757	0.733	0.56
S. aureus Newman [8], partner 1.25 µg/mL	–	0.709	0.579	–
S. aureus Newman [8], partner 2.5 µg/mL	–	0.691	0.812	–
S. aureus Newman [8], partner 5 µg/mL	–	–	0.796	0.787
S. pneumoniae D39V [5], partner 1.5 µg/mL	–	0.953	≥ 1	0.952
S. pneumoniae D39V [5], partner 3 µg/mL	–	0.971	0.999	0.839
S. pneumoniae D39V [5], partner 6 µg/mL	–	0.91	≥ 1	≥ 1

CCC[C@@H]1C[C@@H](C(=O)N[C@@H]([C@H]2O[C@H](SC)[C@H](O)[C@@H](O)[C@H]2O)[C@H](C)Cl)N(C)C1 [Clindamycin] + CC1=C\[C@@H](O)CC(=O)Cc2nc(co2)C(=O)N2CCC=C2C(=O)O[C@H](C(C)C)[C@H](C)/C=C/C(=O)NC\C=C\1 [Virginiamycin M1]
Details	Bliss interaction score
B. subtilis 168 [2]	-0.0417
S. aureus DSM 20231 [3]	-0.0802
S. aureus Newman [4]	-0.0298
S. pneumoniae D39V [1]	-0.0639

Details	fitness
B. subtilis 168 [6], first compound 0.0625 µg/mL, partner 0.0625 µg/mL	0.595
B. subtilis 168 [6], first compound 0.0625 µg/mL, partner 0.125 µg/mL	0.564
B. subtilis 168 [6], first compound 0.0625 µg/mL, partner 0.25 µg/mL	0.59
B. subtilis 168 [6], first compound 0.125 µg/mL, partner 0.0625 µg/mL	0.397
B. subtilis 168 [6], first compound 0.125 µg/mL, partner 0.125 µg/mL	0.364
B. subtilis 168 [6], first compound 0.125 µg/mL, partner 0.25 µg/mL	0.38
B. subtilis 168 [6], first compound 0.25 µg/mL, partner 0.0625 µg/mL	0.361
B. subtilis 168 [6], first compound 0.25 µg/mL, partner 0.125 µg/mL	0.357
B. subtilis 168 [6], first compound 0.25 µg/mL, partner 0.25 µg/mL	0.366
S. aureus DSM 20231 [7], first compound 0.0625 µg/mL, partner 0.0625 µg/mL	0.0867
S. aureus DSM 20231 [7], first compound 0.0625 µg/mL, partner 0.125 µg/mL	0.0913
S. aureus DSM 20231 [7], first compound 0.0625 µg/mL, partner 0.25 µg/mL	0.131
S. aureus DSM 20231 [7], first compound 0.125 µg/mL, partner 0.0625 µg/mL	0.0395
S. aureus DSM 20231 [7], first compound 0.125 µg/mL, partner 0.125 µg/mL	0.0407
S. aureus DSM 20231 [7], first compound 0.125 µg/mL, partner 0.25 µg/mL	0.0815
S. aureus Newman [8], first compound 0.0312 µg/mL, partner 0.0625 µg/mL	0.601
S. aureus Newman [8], first compound 0.0312 µg/mL, partner 0.125 µg/mL	0.613
S. aureus Newman [8], first compound 0.0312 µg/mL, partner 0.25 µg/mL	0.622
S. aureus Newman [8], first compound 0.0625 µg/mL, partner 0.0625 µg/mL	0.303
S. aureus Newman [8], first compound 0.0625 µg/mL, partner 0.125 µg/mL	0.321
S. aureus Newman [8], first compound 0.0625 µg/mL, partner 0.25 µg/mL	0.296
S. aureus Newman [8], first compound 0.125 µg/mL, partner 0.0625 µg/mL	0.0641
S. aureus Newman [8], first compound 0.125 µg/mL, partner 0.125 µg/mL	0.0861
S. aureus Newman [8], first compound 0.125 µg/mL, partner 0.25 µg/mL	0.0756
S. pneumoniae D39V [5], first compound 0.0125 µg/mL, partner 0.5 µg/mL	0.735
S. pneumoniae D39V [5], first compound 0.0125 µg/mL, partner 1 µg/mL	0.726
S. pneumoniae D39V [5], first compound 0.0125 µg/mL, partner 2 µg/mL	0.669
S. pneumoniae D39V [5], first compound 0.015 µg/mL, partner 2 µg/mL	0.806
S. pneumoniae D39V [5], first compound 0.025 µg/mL, partner 0.5 µg/mL	0.496
S. pneumoniae D39V [5], first compound 0.025 µg/mL, partner 1 µg/mL	0.471
S. pneumoniae D39V [5], first compound 0.025 µg/mL, partner 2 µg/mL	0.428
S. pneumoniae D39V [5], first compound 0.03 µg/mL, partner 2 µg/mL	0.699
S. pneumoniae D39V [5], first compound 0.05 µg/mL, partner 0.5 µg/mL	0.243
S. pneumoniae D39V [5], first compound 0.05 µg/mL, partner 1 µg/mL	0.217
S. pneumoniae D39V [5], first compound 0.05 µg/mL, partner 2 µg/mL	0.15
S. pneumoniae D39V [5], first compound 0.06 µg/mL, partner 2 µg/mL	0.624

one replicate
Details	fitness
B. subtilis 168 [6], first compound 0.0039 µg/mL, partner 0.0625 µg/mL	0.963
B. subtilis 168 [6], first compound 0.0039 µg/mL, partner 0.125 µg/mL	0.94
B. subtilis 168 [6], first compound 0.0039 µg/mL, partner 0.25 µg/mL	0.971
B. subtilis 168 [6], first compound 0.0078 µg/mL, partner 0.0625 µg/mL	0.459
B. subtilis 168 [6], first compound 0.0078 µg/mL, partner 0.125 µg/mL	0.881
B. subtilis 168 [6], first compound 0.0078 µg/mL, partner 0.25 µg/mL	0.862
B. subtilis 168 [6], first compound 0.0156 µg/mL, partner 0.0625 µg/mL	0.845
B. subtilis 168 [6], first compound 0.0156 µg/mL, partner 0.125 µg/mL	0.923
B. subtilis 168 [6], first compound 0.0156 µg/mL, partner 0.25 µg/mL	0.927
S. aureus DSM 20231 [7], first compound 0.0312 µg/mL, partner 0.5 µg/mL	0.661
S. aureus DSM 20231 [7], first compound 0.0312 µg/mL, partner 1 µg/mL	0.597
S. aureus DSM 20231 [7], first compound 0.0625 µg/mL, partner 0.5 µg/mL	0.316
S. aureus DSM 20231 [7], first compound 0.0625 µg/mL, partner 1 µg/mL	0.275
S. aureus DSM 20231 [7], first compound 0.125 µg/mL, partner 0.5 µg/mL	0.067
S. aureus DSM 20231 [7], first compound 0.125 µg/mL, partner 1 µg/mL	0.121
S. aureus Newman [8], first compound 0.0312 µg/mL, partner 0.5 µg/mL	0.865
S. aureus Newman [8], first compound 0.0312 µg/mL, partner 1 µg/mL	0.892
S. aureus Newman [8], first compound 0.0312 µg/mL, partner 2 µg/mL	0.769
S. aureus Newman [8], first compound 0.0625 µg/mL, partner 0.5 µg/mL	0.702
S. aureus Newman [8], first compound 0.0625 µg/mL, partner 1 µg/mL	0.728
S. aureus Newman [8], first compound 0.0625 µg/mL, partner 2 µg/mL	0.595
S. aureus Newman [8], first compound 0.125 µg/mL, partner 0.5 µg/mL	0.491
S. aureus Newman [8], first compound 0.125 µg/mL, partner 1 µg/mL	0.475
S. aureus Newman [8], first compound 0.125 µg/mL, partner 2 µg/mL	0.276
S. pneumoniae D39V [5], first compound 0.015 µg/mL, partner 0.15 µg/mL	0.978
S. pneumoniae D39V [5], first compound 0.015 µg/mL, partner 0.3 µg/mL	0.911
S. pneumoniae D39V [5], first compound 0.015 µg/mL, partner 0.5 µg/mL	0.877
S. pneumoniae D39V [5], first compound 0.015 µg/mL, partner 1 µg/mL	0.838
S. pneumoniae D39V [5], first compound 0.03 µg/mL, partner 0.15 µg/mL	0.838
S. pneumoniae D39V [5], first compound 0.03 µg/mL, partner 0.3 µg/mL	0.82
S. pneumoniae D39V [5], first compound 0.03 µg/mL, partner 0.5 µg/mL	0.79
S. pneumoniae D39V [5], first compound 0.03 µg/mL, partner 1 µg/mL	0.652
S. pneumoniae D39V [5], first compound 0.06 µg/mL, partner 0.15 µg/mL	0.736
S. pneumoniae D39V [5], first compound 0.06 µg/mL, partner 0.3 µg/mL	0.695
S. pneumoniae D39V [5], first compound 0.06 µg/mL, partner 0.5 µg/mL	0.703
S. pneumoniae D39V [5], first compound 0.06 µg/mL, partner 1 µg/mL	0.574
